Measured values reported in publication PMC4081830, “Structure of the Trehalose-6-phosphate Phosphatase from Brugia malayi Reveals Key Design Principles for Anthelmintic Drugs” (PLoS Pathogens, 2014).

What was measured:
[1] = system: O=P(O)(O)OC[C@H]1O[C@H](O[C@H]2O[C@H](CO)[C@@H](O)[C@H](O)[C@H]2O)[C@H](O)[C@@H](O)[C@@H]1O; experiment: steady-state kinetics, EnzChek phosphate assay; format: biochemical, Brugia malayi; settings: 25 mM Tris pH 7.5, 50 mM NaCl, 5 mM MgCl2
From the text: steady-state kinetics, EnzChek phosphate assay on T6PP-Δ59

[2] = target: T1, B. malayi T6PP (trehalose-6-phosphate phosphatase), wild type (Brugia malayi, UniProt A8NS89); experiment: steady-state inhibition kinetics, EnzChek phosphate assay; format: biochemical; settings: read-out: KI, trehalose 6-sulfate
T1 construct: gene Bm1_08695; full-length (492 residues) from cDNA library, modified pET-15b(TEV), E. coli T7 Express; N-terminal His-tag removed by TEV protease
T1 sequence (A8NS89 1-492): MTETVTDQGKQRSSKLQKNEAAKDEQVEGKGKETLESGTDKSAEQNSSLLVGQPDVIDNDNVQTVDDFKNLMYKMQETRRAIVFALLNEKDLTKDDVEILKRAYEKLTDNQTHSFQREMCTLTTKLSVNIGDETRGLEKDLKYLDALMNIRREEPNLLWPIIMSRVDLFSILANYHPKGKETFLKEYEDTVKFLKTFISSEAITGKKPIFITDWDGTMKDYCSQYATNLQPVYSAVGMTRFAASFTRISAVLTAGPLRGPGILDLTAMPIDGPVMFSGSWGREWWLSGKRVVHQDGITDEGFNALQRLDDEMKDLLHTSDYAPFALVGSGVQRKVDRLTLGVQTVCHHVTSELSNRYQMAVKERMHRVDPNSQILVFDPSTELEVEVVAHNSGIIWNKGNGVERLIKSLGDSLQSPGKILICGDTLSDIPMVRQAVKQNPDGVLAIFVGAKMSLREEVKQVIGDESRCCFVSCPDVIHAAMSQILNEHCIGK

[3] = target: T2, B. malayi T6PP (trehalose-6-phosphate phosphatase), wild type (Brugia malayi, UniProt A8NS89, D378A); experiment: biochemical
T2 construct: gene Bm1_08695
From the text: (§1) steady-state inhibition kinetics, EnzChek phosphate assay on B. malayi T6PP (trehalose-6-phosphate phosphatase), wild type

[4] = target: T3, B. malayi T6PP (trehalose-6-phosphate phosphatase), wild type (Brugia malayi, UniProt A8NS89, E384A); experiment: biochemical
T3 construct: gene Bm1_08695
From the text: as §1

[5] = target: T4, B. malayi T6PP (trehalose-6-phosphate phosphatase), wild type (Brugia malayi, UniProt A8NS89, K334A); experiment: biochemical
T4 construct: gene Bm1_08695
From the text: as §1

[6] = target: T5, B. malayi T6PP (trehalose-6-phosphate phosphatase), wild type (Brugia malayi, UniProt A8NS89, N228A); experiment: biochemical
T5 construct: gene Bm1_08695
From the text: as §1

[7] = target: T6, B. malayi T6PP (trehalose-6-phosphate phosphatase), wild type (Brugia malayi, UniProt A8NS89, Q332A); experiment: biochemical
T6 construct: gene Bm1_08695
From the text: as §1

[8] = target: T7, B. malayi T6PP (trehalose-6-phosphate phosphatase), wild type (Brugia malayi, UniProt A8NS89, R337A); experiment: biochemical
T7 construct: gene Bm1_08695
From the text: as §1

[9] = target: T8, B. malayi T6PP (trehalose-6-phosphate phosphatase), wild type (Brugia malayi, UniProt A8NS89, S329A); experiment: biochemical
T8 construct: gene Bm1_08695
From the text: as §1

[10] = target: T9, B. malayi T6PP (trehalose-6-phosphate phosphatase), wild type (Brugia malayi, UniProt A8NS89, W280A); experiment: biochemical
T9 construct: gene Bm1_08695
From the text: as §1

[11] = target: T10, B. malayi T6PP (trehalose-6-phosphate phosphatase), wild type (Brugia malayi, UniProt A8NS89, Y221A); experiment: biochemical
T10 construct: gene Bm1_08695
From the text: as §1

[12] = target: T11, B. malayi T6PP (trehalose-6-phosphate phosphatase), wild type (Brugia malayi, UniProt A8NS89, Y225A); experiment: biochemical
T11 construct: gene Bm1_08695
From the text: as §1

[13] = target: T1, B. malayi T6PP (trehalose-6-phosphate phosphatase), wild type; experiment: inhibition kinetics; format: biochemical
[14] = substrate: O=P(O)(O)OC[C@H]1O[C@H](O[C@H]2O[C@H](CO)[C@@H](O)[C@H](O)[C@H]2O)[C@H](O)[C@@H](O)[C@@H]1O; experiment: steady-state kinetics, EnzChek phosphate assay; format: biochemical, Brugia malayi; settings: 25 mM Tris pH 7.5, 50 mM NaCl, 5 mM MgCl2; remark: listed apart in the source
From the text: steady-state kinetics, EnzChek phosphate assay on B. malayi T6PP (trehalose-6-phosphate phosphatase), wild type

## T6PP-Δ59 (Brugia malayi)
[1]
  Km: 260 ± 20 µM
  kcat: 28 ± 1 s⁻¹
  kcat/Km: 110000 M⁻¹ s⁻¹

## O=S(=O)(O)OC[C@H]1O[C@H](O[C@H]2O[C@H](CO)[C@@H](O)[C@H](O)[C@H]2O)[C@H](O)[C@@H](O)[C@@H]1O [trehalose 6-sulfate]
[2]
  Ki: 82 ± 7 µM
[3]
  Ki: 320 ± 30 µM
[4]
  Ki: 200 ± 30 µM
[5]
  Ki: 150 ± 20 µM
[6]
  Ki: 16 ± 2 µM
[7]
  Ki: 1000 µM
[8]
  Ki: 700 ± 100 µM
[9]
  Ki: 240 ± 30 µM
[10]
  Ki: 270 ± 50 µM
[11]
  Ki: 1300 µM
[12]
  Ki: 400 ± 40 µM

## O=P(O)(O)OC[C@H]1OC(O)[C@H](O)[C@@H](O)[C@@H]1O (stereo partly shown) [glucose 6-phosphate]
[13]; no inhibition, substrate trehalose 6-phosphate
  Ki: > 10000 µM

## OC[C@H]1O[C@H](O[C@H]2O[C@H](CO)[C@@H](O)[C@H](O)[C@H]2O)[C@H](O)[C@@H](O)[C@@H]1O [trehalose]
[13]
  Ki: > 10000 µM

B1: B. malayi T6PP (trehalose-6-phosphate phosphatase), wild type (Brugia malayi) (protein)
chain: MTETVTDQGKQRSSKLQKNEAAKDEQVEGKGKETLESGTDKSAEQNSSLLVGQPDVIDNDNVQTVDDFKNLMYKMQETRRAIVFALLNEKDLTKDDVEILKRAYEKLTDNQTHSFQREMCTLTTKLSVNIGDETRGLEKDLKYLDALMNIRREEPNLLWPIIMSRVDLFSILANYHPKGKETFLKEYEDTVKFLKTFISSEAITGKKPIFITDWDGTMKDYCSQYATNLQPVYSAVGMTRFAASFTRISAVLTAGPLRGPGILDLTAMPIDGPVMFSGSWGREWWLSGKRVVHQDGITDEGFNALQRLDDEMKDLLHTSDYAPFALVGSGVQRKVDRLTLGVQTVCHHVTSELSNRYQMAVKERMHRVDPNSQILVFDPSTELEVEVVAHNSGIIWNKGNGVERLIKSLGDSLQSPGKILICGDTLSDIPMVRQAVKQNPDGVLAIFVGAKMSLREEVKQVIGDESRCCFVSCPDVIHAAMSQILNEHCIGK
notes: full-length (492 residues) from cDNA library, modified pET-15b(TEV), E. coli T7 Express; N-terminal His-tag removed by TEV protease
[14]
  Km: 360 ± 60 µM
  kcat: 24 ± 2 s⁻¹
  kcat/Km: 69000 M⁻¹ s⁻¹
